Assay results taken from patent publication US10328051B2, “Proline or proline derivatives for the treatment of dementia” (priority 2014, dated 2019).
Entries after “also recorded” stand apart in the source; their conditions may differ.

Legend:
[1] = test system: Alpha Glutathione S-Transferase (α-GST); experiment: Measurement of α-Glutathione-S-Transferase following multiple dose administration of CHP (Study 0202-71); assay type: in vivo, human; details: healthy volunteers
Text: Example 6—Measurement of α-Glutathione-S-Transferase Following Multiple Dose Administration of CHP (Study 0202-71)—(FIG. 7)
Study title: Measurement of α-Glutathione-S-Transferase following multiple dose administration of CHP (Study 0202-71)
12 healthy Caucasian males were recruited (age: 18-45 years). Multiple doses of CHP were orally administered: • 4×2.0 g CHP per day, for 14 consecutive days (total daily dose=8.0 g CHP) • 4×3.0 g CHP per day, for 14 consecutive days (total daily dose=12.0 g CHP)
To determine the effect of CHP on the blood concentration of Alpha Glutathione S-Transferase (α-GST) following the administration of: • 4×2.0 g CHP per day, for 14 consecutive days (total daily dose=8.0 g CHP) • 4×3.0 g CHP per day, for 14 consecutive days (total daily dose=12.0 g CHP)
The P-value obtained was 0.0017, indicating a 99.8% that the decreased observed was not the result of chance. A one-sample two-sided t-test was used, using the data from day 0-day 17.

[2] = Tissue distribution and pharmacokinetics of single dose of radiolabelled 3H-CHP in mice (Study IPSS C053); assay type: in vivo; details: single dose 3H-CHP
Text: Example 1: Tissue Distribution and Pharmacokinetic Study with CHP Study “Clinical Study in Mice on the Tissue Distribution and Pharmacokinetics of Single Dose of the Radiolabelled ^3H-CHP-Study No.: IPSS C053”—(FIG. 1). This Study has been Designed and Performed According to this Invention
1. Determination of ^3H-CHP distribution in 25 tissues, remaining carcass and whole blood over time.
2. Determination of pharmacokinetic parameters of CHP.
3. Comparison of intravenous (IV), and oral routes of administration.
^3H-CHP Labelling • CHP was labelled on the 4-prime position using tritium. • The scintillation counting technique detects the tritium atom. • Therefore the counting technique detects CHP and some metabolites which incorporate the tritium. […] They were selected using inclusion and exclusion criteria, and were therefore highly standardised.
Dosing Regimen • 48 animals were each administered 50 μCi ^3H-CHP at the start of the experiment. This was termed time zero (00:00 hrs). • 27 mice were dosed via the intravenous (IV) route. • 21 mice were dosed via the oral route. • Six (6) animals were not administered with CHP. They form two control groups of 3 mice each.
Data Collection • 3 mice were sacrificed following the SOP for anesthesia and according to the following time intervals
Sample Collection • From each sacrificed mouse, the following samples were taken: • Whole BloodEyes & Harderian GlandsKidneys & Adrenal GlandsAortaLiverLungSpleenUrinary BladderBone & Bone MarrowCaecumSmall IntestineLarge IntestineLymph Nodes (Mesenteric) Muscle, PancreasBrain & Pituitary GlandBrown FatSubcutaneous FatHeartThymousBoth TestesProstateSkinStomachThyroidSalivary GlandsRemaining CarcassUrine (collected if possible: in practise this was rare)
The remaining carcass sample consisted of the rest after removal of whole blood and the other tissues. Any material cleaned from other tissues listed above was also included. The collected remainings were homogenised before analysis.

[3] = Pre-dose endogenous plasma concentrations of CHP and THP in healthy volunteers (Study 0202-71), HPLC; assay type: in vivo, human; details: healthy subjects
Experimental: Example 8—Study Title: Determination of Pre-Dose Endogenous Concentrations of CHP in Healthy Volunteers (Study 0202 71) (FIG. 11)
According to the examples in this invention, the following ICH-GCP Clinical Phase I study has been performed in healthy subjects for the assessment of the pharmacokinetic profiles of CHP and THP and the determination of the pre-dose endogenous CHP blood plasma concentrations, which were measured for all healthy volunteers directly before CHP administration using a validated, sensitive and selective HPLC bioanalytical method.
Example 9—Study Title: Determination of Pre-Dose Endogenous Concentrations of THP in Healthy Volunteers (Study 0202 71)—(FIG. 11)
According to the examples in this invention, the following ICH-GCP Clinical Phase I study has been performed in healthy volunteers for the assessment of the pharmacokinetic profiles of THP and to determine the pre-dose endogenous THP plasma concentrations, which were measured for all healthy volunteers directly before CHP administration using a validated, sensitive and selective HPLC bioanalytical method. This was performed before both CHP administrations (i.e. for 2.0 g and 3.0 g). • The mean endogenous THP concentration in healthy subjects, calculated across all dose groups, was 0.97±1.15 μg CHP/ml of plasma.

[4] = Multiple dose ascending bioavailability and safety study (Phase I) with oral CHP (Study 0202-71); assay type: in vivo, human
Experimental: Example 5—Study Title: Multiple Dose Ascending Bioavailability and Safety Study Phase 1 with Oral CHP-GALMED Study No: 0202-71
12 healthy Caucasian males were recruited (age: 18-45 years).
Multiple doses of CHP were orally administered: • 4×2.0 g CHP per day, for 14 consecutive days (total daily dose=8.0 g CHP) • 4×3.0 g CHP per day, for 14 consecutive days (total daily dose=12.0 g CHP) Each dose level was administered to all volunteers.
Objectives • To determine the pharmacokinetic parameters and safety of CHP and THP in plasma following oral administration of multiple doses of 8 g CHP (4×2 g) and 12 g CHP (4×3 g)—4× daily, τ=6 h, respectively, in 12 healthy subjects on Day 1 and Day 14. • To model and simulate plasma concentrations of CHP and THP during Days 1 to 14.

[5] = test system: adenocarcinoma and liver metastases, pancreatic cancer and bladder cancer; experiment: Phase II clinical studies IPSS-A04, IPSS-B013, IPSS-D002: anti-tumour activity; assay type: in vivo, human
Text: Title: Phase II—CHP as antitumour agent in patients with resected colorectal cancer and liver metastasis; 60 patients—Study IPSS-A04 (Example 12.1).
Title: Phase II—CHP in patients with locally advanced or metastatic pancreatic cancer—14 patients Study IPSS B013 (Example 12.2).
Title: Evaluation of safety and efficacy of CHP in patients with urogenital Cancer—25 patients—Study IPSS-D002 (Example 12.3).

[6] = test system: hepatic fibrosis; experiment: Phase II clinical study IPSS-B025: anti-fibrotic efficacy in chronic liver diseases; assay type: in vivo, human
Text: Title: Phase II—CHP in patients with chronic viral hepatitis, chronic alcohol liver diseases without cirrhosis or primary sclerosing cholangitis 45 patients—Study IPSS-B025 (Example 12.4).

[7] = male, human, plasma, healthy subjects, oral 4×2.0 g CHP/day
[8] = oral CHP, administration 4× daily

## O=C(O)[C@@H]1C[C@H](O)CN1 [CHP, cis-4-hydroxy-L-proline]
[1]; multiple oral doses of CHP for 14 days
  Liver cell damage: no effect of liver cell damage
[1]; oral 4×2.0 g or 4×3.0 g CHP per day for 14 days, P-value 0.0017, one-sample two-sided t-test, day 0-day 17
  α-GST levels in blood: inhibits significantly; also recorded: highly significant
[2]
  Maximal concentration in the brain following oral administration in comparison to the intravenous application: approximately 48%
[2]; concentration observed in brain & pituitary gland
  Crossing of the blood-brain barrier: can cross the blood-brain barrier
[3]; Study 0202-71
  Average Cmax, molar equivalent in blood: 462.2±212.1 μM CHP/ml blood
[3]; Study 0202-71, after CHP administration
  Average Cmax: 30.29±13.91 μg CHP/ml plasma
[4]; [7]
  Cmax: 52.3 µg/mL
  Tmax: 58.8 min
  half-life: 2060 min
[4]; male, human, plasma, healthy subjects, oral 4×2.0 g CHP/day, read-out: MRT (0-inf)
  MRT inf: 9.33 h
[4]; multiple oral doses of CHP
  Accumulation following oral administration: extensive
[4]; multiple oral doses of CHP, 4× daily, simulation of plasma concentration-time curves
  Time after which a steady state was observed: approximately 48 h
[4]; oral CHP 4× daily, τ=6 h
  Plasma half-life relative to the dosing interval: approximately 4 times
[4]; [8]
  Css,min lower if 2.0 g of CHP was administered (versus 3.0 g): 36%
  Increase of AUCss,t, Css,max and Css,ave when the dose was increased from 2.0 g up to 3.0 g: approximately 50%
[5]
  Anti-tumour activity in patients: anti-tumour activities
[6]
  Anti-fibrotic efficacy in patients suffering from chronic liver diseases: inhibited the hepatic fibrosis; also recorded: antifibrotic efficacy; also recorded: anti-fibrotic efficacy; also recorded: anti-fibrotic activities
